Non-standard residues stand in square brackets, D forms with d. *: point of attachment. dPhe(4-Cl) = N[C@H](Cc1ccc(Cl)cc1)C(=O)O; Heptanoyl = CCCCCCC(=O)*; Nle = CCCC[C@H](N)C(=O)O; Bn = c1ccc(C*)cc1
Key:
[1] = molecular target: T1, MC1-R (B-16 mouse melanoma cells) (Mus musculus, UniProt Q01727); assay: Competitive inhibition binding assay, 125I-NDP-MSH, MC1-R; conditions: 1 μM metallopeptide; 0.2 nM 125I-NDP-MSH; B-16 mouse melanoma cell membranes
T1 construct: membranes prepared from hMC3-R, hMC4-R, hMC5-R, and B-16 mouse melanoma cells (containing MC1-R); endogenous in cells; host or cells: B-16 mouse melanoma cells
Method: (§1) A competitive inhibition binding assay was conducted using membranes prepared from hMC3-R, hMC4-R, hMC5-R, and B-16 mouse melanoma cells (containing MC1-R) using 0.4 nM ^125I-NDP-MSH (0.2 nM for MC1-R) (New England Nuclear, Boston, Mass., USA) in 50 mM HEPES buffer containing 1 mM MgCl2, 2 mM CaCl2, and 5 mM KCl, at pH 7.2. The assay tube also contained a chosen concentration of the metallopeptides of this invention, at a 1 μM concentration, for determining inhibition of the binding of ^125I-NDP-MSH to its receptor. Non-specific binding was measured by complete inhibition of binding of ^125I-NDP-MSH in the assay in the presence of 1 μM α-MSH. Incubation was for 90 minutes at 37° C., after which the assay mixture was filtered and the membranes washed three times with ice cold buffer. The filter was dried and counted in a gamma counter for remaining radioactivity bound to the membranes. 100% specific binding was defined as the difference in radioactivity (cpm) bound to cell membranes in the absence and presence of 1 μM α-MSH. The cpm obtained in the presence of metallopeptides of this invention were normalized with respect to 100% specific binding to determine the percent inhibition of ^125I-NDP-MSH binding. Each assay was conducted in triplicate.

hMC3-R = molecular target: T2, hMC3-R (Homo sapiens, UniProt P41968); assay: Competitive inhibition binding assay, 125I-NDP-MSH, hMC3-R; conditions: 1 μM metallopeptide; 0.4 nM 125I-NDP-MSH; hMC3-R membranes
T2 construct: expressed in transfected cells
Method: as §1

hMC4-R = molecular target: T3, hMC4-R (Homo sapiens, UniProt P32245); assay: Competitive inhibition binding assay, 125I-NDP-MSH, hMC4-R; conditions: 1 μM metallopeptide; 0.4 nM 125I-NDP-MSH; hMC4-R membranes
T3 construct: expressed in transfected cells
Method: as §1

hMC5-R = molecular target: T4, hMC5-R (Homo sapiens, UniProt P33032); assay: Competitive inhibition binding assay, 125I-NDP-MSH, hMC5-R; conditions: 1 μM metallopeptide; 0.4 nM 125I-NDP-MSH; hMC5-R membranes
T4 construct: expressed in transfected cells
Method: as §1

T1 sequence (Q01727 whole entry): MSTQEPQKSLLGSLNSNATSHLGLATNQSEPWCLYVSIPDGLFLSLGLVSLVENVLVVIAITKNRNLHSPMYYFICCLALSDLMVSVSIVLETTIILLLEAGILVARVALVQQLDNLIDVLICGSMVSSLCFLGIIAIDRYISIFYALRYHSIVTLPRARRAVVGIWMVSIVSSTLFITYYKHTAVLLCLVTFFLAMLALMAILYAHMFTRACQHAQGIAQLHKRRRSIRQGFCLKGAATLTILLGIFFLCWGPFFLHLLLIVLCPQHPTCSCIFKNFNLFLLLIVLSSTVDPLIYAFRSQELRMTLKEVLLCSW
T3 sequence (P32245 whole entry): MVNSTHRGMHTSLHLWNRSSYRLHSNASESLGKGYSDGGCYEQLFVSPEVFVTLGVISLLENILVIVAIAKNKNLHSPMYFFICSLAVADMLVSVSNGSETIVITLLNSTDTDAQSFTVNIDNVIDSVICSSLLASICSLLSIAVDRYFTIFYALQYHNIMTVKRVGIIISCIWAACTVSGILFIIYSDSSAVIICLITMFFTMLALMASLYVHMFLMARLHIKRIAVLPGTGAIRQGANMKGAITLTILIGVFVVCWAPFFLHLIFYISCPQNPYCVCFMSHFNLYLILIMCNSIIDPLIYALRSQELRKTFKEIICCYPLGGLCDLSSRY
T4 sequence (P33032 whole entry): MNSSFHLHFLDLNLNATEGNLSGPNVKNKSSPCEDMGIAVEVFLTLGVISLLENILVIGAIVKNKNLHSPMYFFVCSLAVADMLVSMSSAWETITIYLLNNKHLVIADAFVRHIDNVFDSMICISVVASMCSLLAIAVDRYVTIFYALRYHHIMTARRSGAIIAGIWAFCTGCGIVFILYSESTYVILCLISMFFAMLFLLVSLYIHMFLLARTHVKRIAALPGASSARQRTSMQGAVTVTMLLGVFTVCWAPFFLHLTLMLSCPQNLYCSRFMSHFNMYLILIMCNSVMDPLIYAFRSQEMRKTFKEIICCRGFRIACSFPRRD
T2 sequence (P41968 whole entry): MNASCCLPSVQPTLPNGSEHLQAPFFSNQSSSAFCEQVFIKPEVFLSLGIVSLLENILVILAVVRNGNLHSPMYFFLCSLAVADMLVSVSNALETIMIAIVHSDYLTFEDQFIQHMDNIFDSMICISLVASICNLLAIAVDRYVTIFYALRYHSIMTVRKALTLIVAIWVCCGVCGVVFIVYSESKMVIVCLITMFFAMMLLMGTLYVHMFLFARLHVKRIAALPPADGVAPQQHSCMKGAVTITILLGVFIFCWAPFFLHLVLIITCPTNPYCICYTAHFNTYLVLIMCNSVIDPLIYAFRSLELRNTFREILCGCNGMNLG

| Substance | Percent Inhibition at 1 μM MC1-R [1] | Percent Inhibition at 1 μM MC3-R (hMC3-R) | Percent Inhibition at 1 μM MC4-R (hMC4-R) | Percent Inhibition at 1 μM MC5-R (hMC5-R) |
| --- | --- | --- | --- | --- |
| Ac-[Nle]AH[dF]CR-OH | 14% | 0% | 23% | 9% |
| Ac-[Nle]AH[dF]RGC-OH | 26% | 3% | 27% | 23% |
| Heptanoyl-S(Bn)[dPhe(4-Cl)]RC-NH2 | 30% | 13% | 38% | 26% |
| Ac-[Nle]AH[dF]RC-OH | 18% | 0% | 37% | 12% |

From US7396814B2, “Metallopeptide compositions for treatment of sexual dysfunction” (Palatin Technologies, Inc., priority 1995, dated 2008)
